Laboratory results reported in ChEMBL document CHEMBL3808317, “Straightforward conversion of decoquinate into inexpensive tractable new derivatives with significant antimalarial activities” (Bioorg Med Chem Lett, 2016).
Values after ≈ are worked out from the molar mass of the structure shown. Active and inactive are the calls of the source. No cut-off for these calls is given here.

Experiments:
[1] = system: Plasmodium falciparum; experiment: Antimalarial activity against chloroquine-sensitive asexual Plasmodium falciparum NF54 infected in human erythrocytes assessed as inhibition of parasite proliferation at 5 uM after 96 hrs by SYBR Green I fluorescence based assay relative to control; format: functional; conditions: NF54, 96 h
[2] = system: Plasmodium falciparum; experiment: Antimalarial activity against chloroquine-sensitive asexual Plasmodium falciparum NF54 infected in human erythrocytes assessed as inhibition of parasite proliferation at 1 uM after 96 hrs by SYBR Green I fluorescence based assay relative to control; format: functional; conditions: NF54, 96 h
[3] = system: Plasmodium falciparum; experiment: Antimalarial activity against chloroquine-sensitive asexual Plasmodium falciparum NF54 infected in human erythrocytes assessed as inhibition of parasite proliferation at 100 to 500 nM after 96 hrs by SYBR Green I fluorescence based assay; format: functional, organism-based
[4] = system: Plasmodium falciparum; experiment: Antimalarial activity against chloroquine-sensitive asexual Plasmodium falciparum NF54 infected in human erythrocytes assessed as inhibition of parasite proliferation after 96 hrs by SYBR Green I fluorescence based assay; format: functional, organism-based; conditions: NF54, 96 h
[5] = system: Plasmodium falciparum; experiment: Antimalarial activity against multidrug resistant Plasmodium falciparum K1 infected in human erythrocytes assessed as inhibition of parasite proliferation after 96 hrs by SYBR Green I fluorescence based assay; format: functional, organism-based; conditions: K1, 96 h
[6] = system: Plasmodium falciparum; experiment: Antimalarial activity against multidrug resistant Plasmodium falciparum W2 infected in human erythrocytes assessed as inhibition of parasite proliferation after 96 hrs by SYBR Green I fluorescence based assay; format: functional, organism-based; conditions: W2, 96 h
[7] = Resistance index, ratio of IC50 for multi-drug-resistant Plasmodium falciparum K1 infected in human erythrocytes to IC50 for chloroquine-sensitive asexual Plasmodium falciparum NF54 infected in human erythrocytes; format: functional
[8] = Resistance index, ratio of IC50 for multi-drug-resistant Plasmodium falciparum W2 infected in human erythrocytes to IC50 for chloroquine-sensitive asexual Plasmodium falciparum NF54 infected in human erythrocytes; format: functional
[9] = Cytotoxicity against human WI38 cells assessed as growth inhibition after 48 hrs by sulforhodamine B assay; format: cell-based; conditions: WI-38, 48 h
[10] = Selectivity index, ratio of IC50 for human WI38 cells to IC50 chloroquine-sensitive asexual Plasmodium falciparum NF54 infected in human erythrocytes; format: toxicity, cell-based, WI-38; conditions: read-out: Ratio IC50
[11] = Lipophilicity, log P of compound; format: physicochemical; conditions: octanol/water
[12] = Acidic dissociation constant, pKa of compound; format: physicochemical
[13] = Solubility of compound in water; format: physicochemical

Row | Structure (SMILES) | inhibition at 5 µM [1] | inhibition at 1 µM [2] | inhibition [3] | IC50 [4] | IC50 [5] | IC50 [6] | Ratio IC50 [7] | Ratio IC50 [8] | IC50 [9] | selectivity ratio [10] | logP [11] | pKa [12] | solubility [13]
1 | CCCCCCCCCCOc1cc2c(=O)c(C(=O)NCCCn3ccnc3)c[nH]c2cc1OCC | > 50% | > 70% | – | – | – | – | – | – | – | – | – | – | –
2 | CCCCCCCCCCOc1cc2c(=O)c(C(=O)OCC)cn(C(=O)N(C)C)c2cc1OCC | > 50% | > 70% | – | – | – | – | – | – | – | – | – | – | –
3 | CCCCCCCCCCOc1cc2c(=O)c(C(=O)OCC)cn(S(=O)(=O)C3CC3)c2cc1OCC | > 50% | > 70% | – | – | – | – | – | – | – | – | – | – | –
4 | CCCCCCCCCCOc1cc2c(=O)c(C(=O)OCC)cn(C(=O)N3CCCCC3)c2cc1OCC | > 50% | > 70% | Active | 18.3 nM | 89.1 nM | 28.2 nM | 4.9 | 1.5 | 8500 nM | 465 | – | – | –
5 | CCCCCCCCCCOc1cc2c(=O)c(C(=O)NCc3ccccc3F)c[nH]c2cc1OCC | > 50% | > 70% | – | – | – | – | – | – | – | – | – | – | –
6 | CO[C@H]1O[C@@H]2O[C@@]3(C)CC[C@H]4[C@H](C)CC[C@@H]([C@H]1C)[C@@]24OO3 [ARTEMETHER] | – | – | – | 5.77 nM | 7.26 nM | 4.5 nM | 1.3 | 0.8 | – | – | – | – | –
7 | CCCCCCCCCCOc1cc2c(=O)c(C(=O)OCC)cn(S(C)(=O)=O)c2cc1OCC | > 50% | > 70% | – | – | – | – | – | – | – | – | – | – | –
8 | CCCCCCCCCCOc1cc2c(=O)c(C(=O)NCc3ccco3)c[nH]c2cc1OCC | > 50% | > 70% | – | – | – | – | – | – | – | – | – | – | –
9 | CCCCCCCCCCOc1cc2c(=O)c(C(=O)N3CCOCC3)cn(S(=O)(=O)C3CC3)c2cc1OCC | > 50% | > 70% | – | – | – | – | – | – | – | – | – | – | –
10 | C[C@H]1[C@H](OC(=O)CCC(=O)O)O[C@@H]2O[C@@]3(C)CC[C@H]4[C@H](C)CC[C@@H]1[C@@]24OO3 [ARTESUNATE] | – | – | – | 7.88 nM | 8.97 nM | 6.77 nM | 1.4 | 0.8 | > 100000 nM | > 12700 | – | – | –
11 | CCCCCCCCCCOc1cc2c(=O)c(C(=O)NCCOC)c[nH]c2cc1OCC | > 50% | > 70% | – | – | – | – | – | – | – | – | – | – | –
12 | CCCCCCCCCCOc1cc2c(=O)c(C(=O)NCCOCCO)c[nH]c2cc1OCC | > 50% | > 70% | Active | 40.4 nM | 64.8 nM | 18.5 nM | 1.6 | 0.5 | 43900 nM | 1090 | – | – | –
13 | CCCCCCCCCCOc1cc2c(O)c(C(=O)OCC)cnc2cc1OCC [DECOQUINATE] | > 50% | > 70% | Active | 26.6 nM | 64.9 nM | 15.4 nM | 2.4 | 0.6 | > 100000 nM | > 3760 | 8.19 | 9.81 | 0.06 µg/mL (≈ 0.144 µM)
14 | CCCCCCCCCCOc1cc2c(=O)c(C(=O)OCC)cn(C(C)=O)c2cc1OCC | > 50% | > 70% | Active | 4.9 nM | 12 nM | 8.5 nM | 2.5 | 1.7 | > 100000 nM | > 20400 | – | – | –
15 | CCCCCCCCCCOc1cc2c(=O)c(C(=O)OCC)cn(C(=O)CC)c2cc1OCC | > 50% | > 70% | Active | 15.4 nM | 48.9 nM | 11.5 nM | 3.2 | 0.8 | > 100000 nM | > 6490 | – | – | –
16 | CC[C@H]1CN2CCc3cc(OC)c(OC)cc3[C@@H]2C[C@@H]1C[C@H]1NCCc2cc(OC)c(OC)cc21 [EMETINE] | – | – | – | – | – | – | – | – | 50 nM | – | – | – | –
17 | CCCCCCCCCCOc1cc2c(=O)c(C(=O)N3CCOCC3)cn(C(C)=O)c2cc1OCC | > 50% | > 70% | – | – | – | – | – | – | – | – | – | – | –
18 | CCCCCCCCCCOc1cc2c(=O)c(C(=O)NCCN(C)C)c[nH]c2cc1OCC | > 50% | > 70% | – | – | – | – | – | – | – | – | – | – | –
19 | CCCCCCCCCCOc1cc2c(=O)c(C(=O)NCc3ccc(F)cc3)c[nH]c2cc1OCC | > 50% | > 70% | Active | 33.1 nM | 63.1 nM | 8.6 nM | 1.9 | 0.2 | > 100000 nM | > 3020 | – | – | –
